# Results taken from US12649750B2, “Macrocyclic compounds, compositions, and methods of using thereof” (Sionna Therapeutics Inc., priority 2022, dated 2026).
# Target: T1, NBD1 (Homo sapiens, UniProt P13569)
# T1 construct: Purified recombinant NBD1 was produced using previously described methods; made in house
# Test: Aggregation analysis using differential static light scattering (DSLS), thermal stability of NBD1 (ΔTagg)
# Type: binding
# Conditions: ΔTagg versus DMSO control, NBD1 0.2 mg/ml
# Summary of the method: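 Thermal aggregation of purified NBD1 was followed by static light scattering during a 1° C./min ramp to 70° C. Protein was at 0.2 mg/ml with 2 mM ATP at pH7.6. Each compound's Tagg was referenced to DMSO controls.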
# T1 sequence (P13569 423-646 limits assumed): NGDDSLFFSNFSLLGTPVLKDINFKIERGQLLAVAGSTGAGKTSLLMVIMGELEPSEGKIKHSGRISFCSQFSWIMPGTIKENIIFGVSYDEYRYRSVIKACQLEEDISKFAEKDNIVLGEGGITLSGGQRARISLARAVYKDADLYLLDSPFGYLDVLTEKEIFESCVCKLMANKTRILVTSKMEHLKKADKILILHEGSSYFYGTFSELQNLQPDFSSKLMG
smiles,measurement,value
"CNC1CS(=O)(=O)CC(C)(C)CCC[C@](C)(c2cccc(C[C@@H](C)C(=O)O)c2)c2nc(n(C)n2)-c2cc(ccc2F)Oc2c(F)c(F)c3[nH]ccc3c21 (stereo partly drawn) [Compound 360D, (2R)-2-Methyl-3-[3-[(6R)-21,22,28-trifluoro-3,6,10,10-tetramethyl-14-(methylamino)-12,12-dioxo-24-oxa-12λ6-thia-3,4,19,30-tetrazapentacyclo[23.3.1.12,5.015,23.016,20]triaconta-1(29),2(30),4,15,17,20,22,25,27-nonaen-6-yl]phenyl]propanoic Acid]",DSLS 3D (100 μM ΔT),A (an ΔTagg value less than or equal to 5 °C is marked “A”)
"Cn1nc2nc1-c1cc(ccc1F)Oc1c(F)c(F)c3[nH]cc(CC(=O)O)c3c1CCS(=O)(=O)CC(C)(C)CCC[C@]2(C)c1ccccc1 [Compound 361, 2-[(6R)-21,22,28-Trifluoro-3,6,10,10-tetramethyl-12,12-dioxo-6-phenyl-24-oxa-12λ6-thia-3,4,19,30-tetrazapentacyclo[23.3.1.12,5.015,23.016,20]triaconta-1(29),2(30),4,15,17,20,22,25,27-nonaen-17-yl]acetic Acid]",DSLS 3D (100 μM ΔT),A (an ΔTagg value less than or equal to 5 °C is marked “A”)
"Cn1nc2nc1-c1cc(ccn1)Sc1c(F)cc3[nH]cc(CC(=O)O)c3c1CCS(=O)(=O)CC(C)(C)CCC[C@]2(C)c1ccccc1 [Compound 362, 2-[(6R)-22-Fluoro-3,6,10,10-tetramethyl-12,12-dioxo-6-phenyl-12λ6,24-dithia-3,4,19,28,30-pentazapentacyclo[23.3.1.12,5.015,23.016,20]triaconta-1(29),2(30),4,15,17,20,22,25,27-nonaen-17-yl]acetic Acid]",DSLS 3D (100 μM ΔT),A (an ΔTagg value less than or equal to 5 °C is marked “A”)
"Cn1nc2nc1-c1cc(ccn1)Oc1c(F)c(F)c3[nH]cc(CC(=O)O)c3c1CCS(=O)(=O)CC(C)(C)CCC[C@]2(C)c1ccccc1 [Compound 363, 2-[(6R)-21,22-Difluoro-3,6,10,10-tetramethyl-12,12-dioxo-6-phenyl-24-oxa-12λ6-thia-3,4,19,28,30-pentazapentacyclo[23.3.1.12,5.015,23.016,20]triaconta-1(29),2(30),4,15,17,20,22,25,27-nonaen-17-yl]acetic acid]",DSLS 3D (100 μM ΔT),A (an ΔTagg value less than or equal to 5 °C is marked “A”)
"Cn1nc2nc1-c1cc(ccn1)Cc1c(F)cc3[nH]cc(CC(=O)O)c3c1CCS(=O)(=O)CC(C)(C)CCC[C@]2(C)c1ccccc1 [Compound 364, 2-[(6R)-22-Fluoro-3,6,10,10-tetramethyl-12,12-dioxo-6-phenyl-12λ6-thia-3,4,19,28,30-pentazapentacyclo[23.3.1.12,5.015,23.016,20]triaconta-1(29),2(30),4,15,17,20,22,25,27-nonaen-17-yl]acetic Acid]",DSLS 3D (100 μM ΔT),A (an ΔTagg value less than or equal to 5 °C is marked “A”)
"Cn1nc2nc1-c1cc(ccn1)S(=O)(=O)c1c(F)cc3[nH]cc(CC(=O)O)c3c1CCS(=O)(=O)CC(C)(C)CCC[C@]2(C)c1ccccc1 [Compound 366, 2-[(6R)-22-Fluoro-3,6,10,10-tetramethyl-12,12,24,24-tetraoxo-6-phenyl-12λ6,24λ6-dithia-3,4,19,28,30-pentazapentacyclo[23.3.1.12,5.015,23.016,20]triaconta-1(29),2(30),4,15,17,20,22,25,27-nonaen-17-yl]acetic acid]",DSLS 3D (100 μM ΔT),A (an ΔTagg value less than or equal to 5 °C is marked “A”)
"COc1c(CCC(=O)O)cccc1C1(C)CCCC(C)(C)CS(=O)(=O)CCc2c(c(F)c(F)c3[nH]ccc23)Oc2ccc(F)c(c2)-c2nc1nn2C (stereo not shown) [Compound 373, 3-[2-Methoxy-3-(21,22,28-trifluoro-3,6,10,10-tetramethyl-12,12-dioxo-24-oxa-12λ6-thia-3,4,19,30-tetrazapentacyclo[23.3.1.12,5.015,23.016,20]triaconta-1(29),2(30),4,15,17,20,22,25,27-nonaen-6-yl)phenyl]propanoic Acid]",DSLS 3D (100 μM ΔT),B (a value above 5 °C and less than or equal to 10 °C is marked “B”)
"COC(=O)[C@H](C)Cc1cccc([C@@]2(C)CCCC(C)(C)CS(=O)(=O)CCc3c(c(F)cc4[nH]ccc34)Sc3cc(c(F)cc3O)-c3nc2nn3C)c1 [Compound 376, Methyl (2R)-3-[3-[(6R)-22,28-difluoro-26-hydroxy-3,6,10,10-tetramethyl-12,12-dioxo-12λ6,24-dithia-3,4,19,30-tetrazapentacyclo[23.3.1.12,5.015,23.016,20]triaconta-1(29),2(30),4,15,17,20,22,25,27-nonaen-6-yl]phenyl]-2-methyl-propanoate]",DSLS 3D (100 μM ΔT),A (an ΔTagg value less than or equal to 5 °C is marked “A”)
"C[C@H](Cc1cccc([C@@]2(C)CCCC(C)(C)CS(=O)(=O)CCc3c(c(F)cc4[nH]ccc34)Sc3cc(c(F)cc3N)-c3nc2nn3C)c1)C(=O)O [Compound 377, (2R)-3-[3-[(6R)-26-Amino-22,28-difluoro-3,6,10,10-tetramethyl-12,12-dioxo-12λ6,24-dithia-3,4,19,30-tetrazapentacyclo[23.3.1.12,5.015,23.016,20]triaconta-1(29),2(30),4,15,17,20,22,25,27-nonaen-6-yl]phenyl]-2-methyl-propanoic Acid]",DSLS 3D (100 μM ΔT),B (a value above 5 °C and less than or equal to 10 °C is marked “B”)
"C[C@H](Cc1cccc([C@@]2(C)CCCC(C)(C)CS(=O)(=O)CCc3c(c(F)cc4[nH]ccc34)Sc3cc(c(F)cc3C(=O)O)-c3nc2nn3C)c1)C(=O)O [Compound 378, (6R)-6-[3-[(2R)-2-Carboxypropyl]phenyl]-22,28-difluoro-3,6,10,10-tetramethyl-12,12-dioxo-12λ6,24-dithia-3,4,19,30-tetrazapentacyclo[23.3.1.12,5.015,23.016,20]triaconta-1(29),2(30),4,15,17,20,22,25,27-nonaene-26-carboxylic Acid]",DSLS 3D (100 μM ΔT),A (an ΔTagg value less than or equal to 5 °C is marked “A”)
"C[C@H](Cc1cccc([C@@]2(C)CCCC(C)(C)CS(=O)(=O)CCc3c(c(F)cc4[nH]ccc34)S(=O)(=O)c3cc(c(F)cc3N)-c3nc2nn3C)c1)C(=O)O [Compound 379C, (2R)-3-[3-[(6R)-26-Amino-22,28-difluoro-3,6,10,10-tetramethyl-12,12,24,24-tetraoxo-12λ6,24λ6-dithia-3,4,19,30-tetrazapentacyclo[23.3.1.12,5.015,23.016,20]triaconta-1(29),2(30),4,15,17,20,22,25,27-nonaen-6-yl]phenyl]-2-methyl-propanoic acid]",DSLS 3D (100 μM ΔT),A (an ΔTagg value less than or equal to 5 °C is marked “A”)
"C[C@@H](Cc1cccc([C@@]2(C)CCCC(C)(C)CS(=O)(=O)CCc3c(c(F)c(F)c4[nH]ncc34)Oc3ccc(F)c(c3)-c3nc2nn3C)c1)C(=O)O [Compound 382, (2S)-2-Methyl-3-[3-[(6R)-21,22,28-trifluoro-3,6,10,10-tetramethyl-12,12-dioxo-24-oxa-12λ6-thia-3,4,18,19,30-pentazapentacyclo[23.3.1.12,5.015,23.016,20]triaconta-1(29),2(30),4,15,17,20,22,25,27-nonaen-6-yl]phenyl]propanoic Acid]",DSLS 3D (100 μM ΔT),B (a value above 5 °C and less than or equal to 10 °C is marked “B”)
"Cc1onc(NC(=O)[C@H](C)Cc2cccc([C@@]3(C)CCCC(C)(C)CS(=O)(=O)CCc4c(c(F)c(F)c5[nH]ccc45)Oc4ccc(F)c(c4)-c4nc3nn4C)c2)c1C [Compound 384, (2R)—N-(4,5-Dimethylisoxazol-3-yl)-2-methyl-3-[3-[(6R)-21,22,28-trifluoro-3,6,10,10-tetramethyl-12,12-dioxo-24-oxa-12λ6-thia-3,4,19,30-tetrazapentacyclo[23.3.1.12,5.015,23.016,20]triaconta-1(29),2(30),4,15,17,20,22,25,27-nonaen-6-yl]phenyl]propenamide]",DSLS 3D (100 μM ΔT),A (an ΔTagg value less than or equal to 5 °C is marked “A”)
